Target: T1, ATP-sensitive inward rectifier potassium channel 1 (Homo sapiens, UniProt P48048)
T1 sequence (P48048 whole entry): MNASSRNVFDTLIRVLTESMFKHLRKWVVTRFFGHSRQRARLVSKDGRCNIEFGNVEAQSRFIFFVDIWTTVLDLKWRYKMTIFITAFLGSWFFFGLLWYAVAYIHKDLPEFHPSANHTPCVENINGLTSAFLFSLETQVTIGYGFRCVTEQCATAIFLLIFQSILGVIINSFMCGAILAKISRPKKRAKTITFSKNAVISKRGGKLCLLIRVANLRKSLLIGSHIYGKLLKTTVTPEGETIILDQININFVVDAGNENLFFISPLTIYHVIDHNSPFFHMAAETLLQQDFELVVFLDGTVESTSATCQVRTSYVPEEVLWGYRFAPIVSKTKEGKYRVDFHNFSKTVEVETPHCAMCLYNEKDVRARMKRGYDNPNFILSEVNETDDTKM
Assay: Inhibition of human Kir1.1 expressed in HEK293 cells by thallium flux assay
Assay type: cell-based

Q: Cc1c([C@@H](O)CN2CCC3(CC2)CCN(c2cnc(C#N)cn2)CC3)ccc2c1COC2=O was tested. Which IC50 did it give?
A: 9 nM

Q: For Cc1c([C@@H](N)CN2CCC3(CC2)CC(=O)N(c2ccc(C#N)cn2)C3)ccc2c1COC2=O, which IC50 is on record?
A: 14 nM

Q: Cc1nc(N2CCC3(CCN(C[C@H](O)c4ccc5c(c4C)COC5=O)CC3)C2)ccc1C#N was tested. Which IC50 did it give?
A: 14 nM

Q: With Cc1cc(C#N)cnc1N1CCC2(CCN(C[C@H](O)c3ccc4c(c3C)COC4=O)CC2)C1 as the molecule, how does the IC50 read?
A: 20 nM

Q: How did the IC50 turn out when Cc1c([C@@H](O)CN2CCC3(CC2)CCN(c2ccc(C#N)cc2)C3)ccc2c1COC2=O was run?
A: 15 nM

Q: With Cc1c([C@@H](O)CN2CCC3(CC2)CCN(c2ncc(C#N)cn2)CC3)ccc2c1COC2=O as the molecule, how does the IC50 read?
A: 14 nM

Q: With Cc1c([C@@H](O)CN2CCC3(CC2)CCN(c2ccc(C#N)nn2)CC3)ccc2c1COC2=O as the molecule, how does the IC50 read?
A: 13 nM

Q: Which IC50 does the source give for Cc1cc(N2CCC3(CCN(C[C@H](O)c4ccc5c(c4C)COC5=O)CC3)C2)ncc1C#N here?
A: 17 nM

Source: ChEMBL document CHEMBL3621176, “Inhibitors of the Renal Outer Medullary Potassium Channel” (ACS Med Chem Lett, 2015)
